This note sets out measurements from patent publication US9976141B2, “Compositions and methods for inhibiting gene expression of Hif2alpha” (Arrowhead Madison Inc., priority 2015, dated 2018).

In this data set the test system is human EPAS1 (Hif2α) cDNA in psiCHECK2 (Renilla luciferase/EPAS1 fusion mRNA) in Hep3B cells. The data set is described as follows: Efficacy screen of Hif2α RNAi triggers in vitro, dual-luciferase reporter assay (1 nM and 0.1 nM). The data set is classed as cell-based. To be noted: Hep3B cells co-transfected with EPAS1-psiCHECK2, Renilla luciferase normalized to firefly luciferase. The source says:
Candidate sequences were identified by in silico analysis and screened as chemically modified canonical siRNAs in vitro. For screening purposes, the human EPAS1 (Hif2α) cDNA sequence (accession #NM 001430) was synthesized and cloned (DNA 2.0, Menlo Park, Calif.) into a commercially-available reporter-based screening plasmid, psiCHECK2 (Promega, Madison, Wis.) which generated a Renilla luciferase/EPAS1 fusion mRNA. For RNAi trigger efficacy evaluation, Hep3B cells, a human hepatocellular carcinoma line, were plated at 10,000 cells per well in 96-well format. Each of the 187 EPAS1 RNAi triggers, in two subsets, was co-transfected at two concentrations, 1 nM and 0.1 nM, with 25 ng EPAS1-psiCHECK2 plasmid DNA per well and 0.2 μL LipoFectamine 2000 (Life Technologies) per well. Gene knockdown was determined by measuring Renilla luciferase levels normalized to the levels of constitutively-expressed firefly luciferase, also present on the psiCHECK-2 plasmid, using the Dual Luciferase Reporter Assay (Promega, Madison, Wis.) Table 5.
Background: Reporter assays use an easily measured gene product as a stand-in for the process of interest.

Strand notation (5' to 3'): a small letter for the sugar, then the base; units joined by * are phosphorothioate-linked, units joined directly phosphodiester-linked; [ ] holds rarer units or linkages, { } end groups; capitals alone tell only the bases. d = 2'-deoxy (DNA); m = 2'-O-methyl; f = 2'-fluoro

On to “2306 (sense fCmCfCmCfCmAfGmAfUmCfCmAfCmCfAmUfUmAfAdT; antisense dTfUmAfAmUfGmGfUmGfGmAfUmCfUmGfGmGfGmGdT*dT; siRNA) [compound 2306]”, for which the “Relative Rluc-Hif2α” value is reported as 0.596 ± 0.038 (0.1 nM RNAi trigger) and 0.613 ± 0.031 (1 nM RNAi trigger).

Turning to “2312 (sense fCmAfCmAfAmAfGmUfGmGfGmCfCmGfUmCfGmGfAdT; antisense dTfCmCfGmAfCmGfGmCfCmCfAmCfUmUfUmGfUmGdT*dT; siRNA) [compound 2312]”, the “Relative Rluc-Hif2α” value is 0.899 ± 0.124 (0.1 nM RNAi trigger) and 0.725 ± 0.173 (1 nM RNAi trigger).

For “2264 (sense fCmAfGmAfAmCfUmGfAmUfUmGfGmUfUmAfCmCfAdT; antisense dTfGmGfUmAfAmCfCmAfAmUfCmAfGmUfUmCfUmGdT*dT; siRNA) [compound 2264]”, the “Relative Rluc-Hif2α” value by setting is: (0.1 nM RNAi trigger) 0.381 ± 0.023; (1 nM RNAi trigger) 0.183 ± 0.019.

As for “2350 (sense fUmGfUmCfGmGfCmUfUmUfUmUfGmCfCmAfUmCfAdT; antisense dTfGmAfUmGfGmCfAmAfAmAfAmGfCmCfGmAfCmAdT*dT; siRNA) [compound 2350]”, the “Relative Rluc-Hif2α” value runs as follows: (0.1 nM RNAi trigger) 0.755 ± 0.085; (1 nM RNAi trigger) 0.678 ± 0.105.

As for “2237 (sense fGmUfGmCfUmCfGmGfCmGfUmCfUmGfAmAfCmGfAdT; antisense dTfCmGfUmUfCmAfGmAfCmGfCmCfGmAfGmCfAmCdT*dT; siRNA) [compound 2237]”, the “Relative Rluc-Hif2α” value by setting is: (0.1 nM RNAi trigger) 0.746 ± 0.029; (1 nM RNAi trigger) 0.978 ± 0.083.

In the case of “2278 (sense fCmCfAmGfUmAfCmCfGmGfAmUfGmCfUmCfGmCfAdT; antisense dTfGmCfGmAfGmCfAmUfCmCfGmGfUmAfCmUfGmGdT*dT; siRNA) [compound 2278]”, the “Relative Rluc-Hif2α” value reads like this: (0.1 nM RNAi trigger) 0.947 ± 0.044; (1 nM RNAi trigger) 0.564 ± 0.070.

Take “2284 (sense fGmCfAmUfGmGfGmGfGmCfUmAfCmGfUmGfUmGfAdT; antisense dTfCmAfCmAfCmGfUmAfGmCfCmCfCmCfAmUfGmCdT*dT; siRNA) [compound 2284]”: the “Relative Rluc-Hif2α” value runs as follows: (0.1 nM RNAi trigger) 1.227 ± 0.266; (1 nM RNAi trigger) 0.787 ± 0.062.

With “2317 (sense fCmUfCmGfAmGfGmCfCmCfAmGfAmCfGmUfGmCfAdT; antisense dTfGmCfAmCfGmUfCmUfGmGfGmCfCmUfCmGfAmGdT*dT; siRNA) [compound 2317]”, the “Relative Rluc-Hif2α” value (0.1 nM RNAi trigger) was found to be 0.842 ± 0.239 and the “Relative Rluc-Hif2α” value (1 nM RNAi trigger) is recorded as 0.843 ± 0.157.

Regarding “2356 (sense fAmUfAmGfGmUfGmUfGmAfCmAfAmUfCmCfGmAfAdT; antisense dTfUmCfGmGfAmUfUmGfUmCfAmCfAmCfCmUfAmUdT*dT; siRNA) [compound 2356]”, the “Relative Rluc-Hif2α” value is, setting by setting: (0.1 nM RNAi trigger) 0.574 ± 0.006; (1 nM RNAi trigger) 0.210 ± 0.023.

Regarding “2338 (sense fAmGfGmGfUmCfAmAfCmUfCmCfAmAfCmGfUmAfAdT; antisense dTfUmAfCmGfUmUfGmGfAmGfUmUfGmAfCmCfCmUdT*dT; siRNA) [compound 2338]”, the “Relative Rluc-Hif2α” value turned out to be 0.743 ± 0.070 (0.1 nM RNAi trigger) and 0.334 ± 0.091 (1 nM RNAi trigger).

For “2374 (sense fGmCfUmAfUmGfUmGfAmCfUmCfGmGfAmUfGmGfAdT; antisense dTfCmCfAmUfCmCfGmAfGmUfCmAfCmAfUmAfGmCdT*dT; siRNA) [compound 2374]”, the “Relative Rluc-Hif2α” value amounted to 0.355 ± 0.020 (0.1 nM RNAi trigger) and 0.192 ± 0.014 (1 nM RNAi trigger).

“2347 (sense fUmUfAmUfAmUfCmUfGmGfGmUfUmAfAmGfUmGfAdT; antisense dTfCmAfCmUfUmAfAmCfCmCfAmGfAmUfAmUfAmAdT*dT; siRNA) [compound 2347]”: the “Relative Rluc-Hif2α” value turned out to be 0.753 ± 0.092 (0.1 nM RNAi trigger) and 0.530 ± 0.040 (1 nM RNAi trigger).

Regarding “2243 (sense fUmUfCmAfUmGfGmGfAmCfUmUfAmCfAmCfAmGfAdT; antisense dTfCmUfGmUfGmUfAmAfGmUfCmCfCmAfUmGfAmAdT*dT; siRNA) [compound 2243]”, the “Relative Rluc-Hif2α” value by setting is: (0.1 nM RNAi trigger) 0.688 ± 0.059; (1 nM RNAi trigger) 0.694 ± 0.107.

As for “2274 (sense fAmUfGmCfGmCfUmAfGmAfCmUfCmCfGmAfGmAfAdT; antisense dTfUmCfUmCfGmGfAmGfUmCfUmAfGmCfGmCfAmUdT*dT; siRNA) [compound 2274]”, the “Relative Rluc-Hif2α” value runs as follows: (0.1 nM RNAi trigger) 0.870 ± 0.108; (1 nM RNAi trigger) 0.506 ± 0.074.

In the case of “2395 (sense fUmAfUmUfAmAfCmCfCmUfAmCfCmUfGmUfCmAfAdT; antisense dTfUmGfAmCfAmGfGmUfAmGfGmGfUmUfAmAfUmAdT*dT; siRNA) [compound 2395]”, the “Relative Rluc-Hif2α” value (0.1 nM RNAi trigger) was found to be 0.494 ± 0.104 and the “Relative Rluc-Hif2α” value (1 nM RNAi trigger) is 0.218 ± 0.029.

Consider “2405 (sense fUmGfUmCfAmAfCmGfUmAfAmCfGmAfUmUfUmCfAdT; antisense dTfGmAfAmAfUmCfGmUfUmAfCmGfUmUfGmAfCmAdT*dT; siRNA) [compound 2405]”, for which the “Relative Rluc-Hif2α” value by setting is: (0.1 nM RNAi trigger) 0.261 ± 0.044; (1 nM RNAi trigger) 0.138 ± 0.035.

Turning to “2259 (sense fUmCfAmCfCmAfAmCfAmGfAmGfGmCfCmGfUmAfAdT; antisense dTfUmAfCmGfGmCfCmUfCmUfGmUfUmGfGmUfGmAdT*dT; siRNA) [compound 2259]”, the “Relative Rluc-Hif2α” value worked out at 0.743 ± 0.086 (0.1 nM RNAi trigger) and 0.836 ± 0.110 (1 nM RNAi trigger).

For “2269 (sense fAmUfGmAfAmUfUmCfUmAfCmCfAmUfGmCfGmCfAdT; antisense dTfGmCfGmCfAmUfGmGfUmAfGmAfAmUfUmCfAmUdT*dT; siRNA) [compound 2269]”, the “Relative Rluc-Hif2α” value reads like this: (0.1 nM RNAi trigger) 0.530 ± 0.097; (1 nM RNAi trigger) 0.302 ± 0.080.

In the case of “2349 (sense fAmCfGmGfCmCfUmGfUmAfCmGfGmAfCmAfCmUfAdT; antisense dTfAmGfUmGfUmCfCmGfUmAfCmAfGmGfCmCfGmUdT*dT; siRNA) [compound 2349]”, the “Relative Rluc-Hif2α” value (0.1 nM RNAi trigger) amounted to 0.674 ± 0.172 and the “Relative Rluc-Hif2α” value (1 nM RNAi trigger) was found to be 0.504 ± 0.062.

As to “2320 (sense fUmUfUmGfAmUfGmCfCmGfGmAfCmAfAmGfCmCfAdT; antisense dTfGmGfCmUfUmGfUmCfCmGfGmCfAmUfCmAfAmAdT*dT; siRNA) [compound 2320]”, the “Relative Rluc-Hif2α” value reads like this: (0.1 nM RNAi trigger) 0.770 ± 0.312; (1 nM RNAi trigger) 0.486 ± 0.059.

Consider “2410 (sense fUmAfUmUfGmUfCmGfAmAfUmUfCmCfUmAfCmUfAdT; antisense dTfAmGfUmAfGmGfAmAfUmUfCmGfAmCfAmAfUmAdT*dT; siRNA) [compound 2410]”, for which the “Relative Rluc-Hif2α” value reads like this: (0.1 nM RNAi trigger) 0.228 ± 0.033; (1 nM RNAi trigger) 0.154 ± 0.022.

In the case of “2417 (sense fAmAfGmUfAmUfUmCfUmGfAmUfCmCfUmAfCmCfAdT; antisense dTfGmGfUmAfGmGfAmUfCmAfGmAfAmUfAmCfUmUdT*dT; siRNA) [compound 2417]”, the “Relative Rluc-Hif2α” value by setting is: (0.1 nM RNAi trigger) 0.295 ± 0.057; (1 nM RNAi trigger) 0.253 ± 0.037.

Take “2351 (sense fGmUfCmGfGmCfUmUfUmUfUmGfCmCfAmUfCmUfAdT; antisense dTfAmGfAmUfGmGfCmAfAmAfAmAfGmCfCmGfAmCdT*dT; siRNA) [compound 2351]”: the “Relative Rluc-Hif2α” value (0.1 nM RNAi trigger) stood at 1.216 ± 0.415 and the “Relative Rluc-Hif2α” value (1 nM RNAi trigger) turned out to be 1.306 ± 0.216.

Turning to “2231 (sense fGmAfGmAfCmUfGmUfAmUfGmGfUmCfAmGfCmUfAdT; antisense dTfAmGfCmUfGmAfCmCfAmUfAmCfAmGfUmCfUmCdT*dT; siRNA) [compound 2231]”, the “Relative Rluc-Hif2α” value (0.1 nM RNAi trigger) came to 0.544 ± 0.368 and the “Relative Rluc-Hif2α” value (1 nM RNAi trigger) came to 0.491 ± 0.198.

“2316 (sense fGmCfUmCfGmAfGmGfCmCfCmAfGmAfCmGfUmGfAdT; antisense dTfCmAfCmGfUmCfUmGfGmGfCmCfUmCfGmAfGmCdT*dT; siRNA) [compound 2316]”: the “Relative Rluc-Hif2α” value is, setting by setting: (0.1 nM RNAi trigger) 0.797 ± 0.211; (1 nM RNAi trigger) 0.579 ± 0.055.

Regarding “2288 (sense fUmAfCmAfAmCfCmCfUmCfGmCfAmAfCmCfUmGfAdT; antisense dTfCmAfGmGfUmUfGmCfGmAfGmGfGmUfUmGfUmAdT*dT; siRNA) [compound 2288]”, the “Relative Rluc-Hif2α” value by setting is: (0.1 nM RNAi trigger) 0.943 ± 0.029; (1 nM RNAi trigger) 0.932 ± 0.118.

In the case of “2390 (sense fAmCfUmAfUmUfUmAfGmUfAmAfGmCfCmCfGmGfAdT; antisense dTfCmCfGmGfGmCfUmUfAmCfUmAfAmAfUmAfGmUdT*dT; siRNA) [compound 2390]”, the “Relative Rluc-Hif2α” value amounted to 0.772 ± 0.175 (0.1 nM RNAi trigger) and 0.568 ± 0.108 (1 nM RNAi trigger).

In the case of “2254 (sense fUmCfGmUfGmAfGmAfAmCfCmUfGmAfGmUfCmUfAdT; antisense dTfAmGfAmCfUmCfAmGfGmUfUmCfUmCfAmCfGmAdT*dT; siRNA) [compound 2254]”, the “Relative Rluc-Hif2α” value was found to be 0.756 ± 0.080 (0.1 nM RNAi trigger) and 0.641 ± 0.054 (1 nM RNAi trigger).

Turning to “2308 (sense fAmUfUmUfUmGfGmGfCmCfCmAfCmAfAmAfGmUfAdT; antisense dTfAmCfUmUfUmGfUmGfGmGfCmCfCmAfAmAfAmUdT*dT; siRNA) [compound 2308]”, the “Relative Rluc-Hif2α” value is, setting by setting: (0.1 nM RNAi trigger) 0.799 ± 0.084; (1 nM RNAi trigger) 0.998 ± 0.059.

Regarding “2301 (sense fAmUfCmUfUmCfUmUfUmGfAmUfGmCfCmGfGmAfAdT; antisense dTfUmCfCmGfGmCfAmUfCmAfAmAfGmAfAmGfAmUdT*dT; siRNA) [compound 2301]”, the “Relative Rluc-Hif2α” value reads like this: (0.1 nM RNAi trigger) 0.558 ± 0.034; (1 nM RNAi trigger) 0.423 ± 0.102.
